The target of one experiment is T1, JAK1 (Homo sapiens, UniProt P23458).
T1 construct: purchased Carna Biosciences
The experiment can be described thus: Lance Ultra Kinase Assay, recombinant JAK1. In kind it is biochemical. The note with it: 5 mM ATP. As for the experimental part:
(§1) Recombinant JAK1, JAK2, JAK3 and TYK2 purchased from Carna Biosciences. The inhibition potency of compounds against JAK1, JAK2, JAK3 and TYK2 was assessed using Lance Ultra Kinase Assay.
(§2) In brief, recombinant kinases were pre-incubated in the presence or absence of compound at room temperature for 15 minutes. The reaction was initiated by the addition of 5 mM ATP and substrate peptide which could be phosphorylated by kinases in the reaction. After 60 minutes incubation, the reaction was stopped by the addition of the detection reagent mix containing EDTA. The fluorescence was measured at 615 nm and 665 nm, respectively with excitation wavelength at 320 nm. The calculated signal ratio of 665 nm/615 nm is proportional to the kinase activity.

A further experiment deals with T2, JAK2 (Homo sapiens, UniProt O60674).
T2 construct: purchased Carna Biosciences
Kind of experiment: Lance Ultra Kinase Assay, recombinant JAK2. The class given is biochemical. The note with it: 5 mM ATP. How it is done:
as §1, §2

Another experiment deals with phosphorylation of STAT6. Kind of experiment: Cellular p-STAT6 assay, IL-13 stimulated THP-1 cells, flow cytometry. The class given is cell-based. The conditions noted are these: IL-13 10 ng/ml, read-out: pSTAT6 IC50. How it is done:
To detect phosphorylated STAT6 (pSTAT6), THP-1 cells were harvested by centrifugation at 250 g for 5 min and resuspended in assay medium (RPMI1640+10% FBS) to 2×10^5 cells/well. Test compounds were applied to assay plates in serial dilution from 1 μM to 0.3 nM in DMSO. THP-1 cells were incubated with serial diluted compounds for 60 min at room temperature, followed by stimulation of interleukin (IL-13, 10 ng/ml) for 30 min, fixed in Cytofix buffer (BD Biosciences), and permeabilized in 90% methanol on ice. PE anti-pSTAT6 (BD Biosciences) antibodies were stained for 60 min at room temperature before being analyzed by flow cytometry. In the assay the compounds were thus diluted and dose-response curves for inhibition of the signal determine the IC50 for the compounds.

The next experiment addresses T3, TYK2 (Homo sapiens, UniProt P29597).
T3 construct: purchased Carna Biosciences
The experiment can be described thus: Lance Ultra Kinase Assay, recombinant TYK2. The class given is biochemical. The conditions noted are these: 5 mM ATP. As for the experimental part:
as §1, §2

For another experiment, the target named is T4, JAK3 (Homo sapiens, UniProt P52333).
T4 construct: purchased Carna Biosciences
T4 sequence (P52333 1-1124): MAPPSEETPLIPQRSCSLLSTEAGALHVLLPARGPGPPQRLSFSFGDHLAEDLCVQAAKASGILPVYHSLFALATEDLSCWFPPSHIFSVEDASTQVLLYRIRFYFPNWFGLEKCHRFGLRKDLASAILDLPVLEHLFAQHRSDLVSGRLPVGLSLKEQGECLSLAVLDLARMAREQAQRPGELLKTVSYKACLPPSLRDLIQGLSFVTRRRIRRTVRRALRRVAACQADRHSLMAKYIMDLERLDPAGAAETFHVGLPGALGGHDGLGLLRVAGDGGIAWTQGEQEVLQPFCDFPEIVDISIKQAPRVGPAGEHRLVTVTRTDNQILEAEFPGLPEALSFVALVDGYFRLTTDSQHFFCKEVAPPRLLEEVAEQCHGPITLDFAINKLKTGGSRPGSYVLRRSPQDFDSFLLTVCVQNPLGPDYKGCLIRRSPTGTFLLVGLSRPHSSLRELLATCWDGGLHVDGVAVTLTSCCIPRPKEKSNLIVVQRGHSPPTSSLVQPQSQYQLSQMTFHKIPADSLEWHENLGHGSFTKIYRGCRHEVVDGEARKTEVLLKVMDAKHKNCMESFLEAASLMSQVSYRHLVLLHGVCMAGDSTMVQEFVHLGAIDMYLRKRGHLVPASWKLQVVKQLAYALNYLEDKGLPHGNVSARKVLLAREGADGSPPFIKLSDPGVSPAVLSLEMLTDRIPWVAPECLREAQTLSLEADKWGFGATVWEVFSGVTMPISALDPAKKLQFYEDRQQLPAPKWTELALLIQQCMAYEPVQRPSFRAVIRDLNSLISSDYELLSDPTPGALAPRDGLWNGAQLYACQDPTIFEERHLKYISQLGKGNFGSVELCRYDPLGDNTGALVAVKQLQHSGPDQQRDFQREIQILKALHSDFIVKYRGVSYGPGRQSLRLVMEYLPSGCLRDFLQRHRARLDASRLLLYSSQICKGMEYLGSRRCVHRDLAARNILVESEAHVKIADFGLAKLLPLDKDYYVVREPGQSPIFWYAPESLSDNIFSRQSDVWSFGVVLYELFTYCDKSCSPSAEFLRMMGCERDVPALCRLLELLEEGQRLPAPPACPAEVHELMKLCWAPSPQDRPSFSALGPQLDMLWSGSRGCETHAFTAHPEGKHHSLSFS
Kind of experiment: Lance Ultra Kinase Assay, recombinant JAK3. The class given is biochemical. The note with it: 5 mM ATP. As for the experimental part:
as §1, §2

Where [1] appears, read: Homo sapiens, THP-1, THP-1 cells.

The structures appear in SMILES notation. Read-outs that look alike come from different tables or passages of the source.

T3 sequence (P29597 whole entry): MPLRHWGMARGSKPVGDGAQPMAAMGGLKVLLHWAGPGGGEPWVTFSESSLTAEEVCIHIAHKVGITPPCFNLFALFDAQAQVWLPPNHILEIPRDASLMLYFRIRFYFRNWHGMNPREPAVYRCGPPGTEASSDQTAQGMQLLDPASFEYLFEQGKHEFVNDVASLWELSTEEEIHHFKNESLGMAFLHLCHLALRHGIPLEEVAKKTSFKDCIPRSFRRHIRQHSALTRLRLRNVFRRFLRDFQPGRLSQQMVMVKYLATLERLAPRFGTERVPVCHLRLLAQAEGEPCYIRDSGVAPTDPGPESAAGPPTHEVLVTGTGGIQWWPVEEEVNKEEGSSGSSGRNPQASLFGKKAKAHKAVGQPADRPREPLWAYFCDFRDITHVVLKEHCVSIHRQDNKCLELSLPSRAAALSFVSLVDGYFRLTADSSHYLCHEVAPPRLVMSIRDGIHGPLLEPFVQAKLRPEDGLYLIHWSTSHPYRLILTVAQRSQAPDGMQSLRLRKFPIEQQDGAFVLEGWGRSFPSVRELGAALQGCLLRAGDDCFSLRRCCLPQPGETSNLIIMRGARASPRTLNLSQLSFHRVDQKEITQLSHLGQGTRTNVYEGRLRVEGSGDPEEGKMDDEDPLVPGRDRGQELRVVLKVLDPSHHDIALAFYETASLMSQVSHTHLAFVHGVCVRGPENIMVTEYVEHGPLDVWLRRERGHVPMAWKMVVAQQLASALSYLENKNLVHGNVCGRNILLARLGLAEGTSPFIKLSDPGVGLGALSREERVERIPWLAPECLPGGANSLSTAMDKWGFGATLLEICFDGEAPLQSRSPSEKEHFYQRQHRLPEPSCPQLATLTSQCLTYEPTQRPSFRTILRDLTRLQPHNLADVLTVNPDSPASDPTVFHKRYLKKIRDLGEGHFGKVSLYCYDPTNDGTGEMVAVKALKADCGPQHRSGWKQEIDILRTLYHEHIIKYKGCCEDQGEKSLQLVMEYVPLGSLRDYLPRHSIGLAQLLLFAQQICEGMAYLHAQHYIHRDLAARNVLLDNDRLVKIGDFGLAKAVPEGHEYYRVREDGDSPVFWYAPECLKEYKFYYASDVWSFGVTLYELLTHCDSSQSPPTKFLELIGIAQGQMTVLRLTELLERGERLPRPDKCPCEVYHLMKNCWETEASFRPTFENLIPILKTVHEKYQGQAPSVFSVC
T2 sequence (O60674 whole entry): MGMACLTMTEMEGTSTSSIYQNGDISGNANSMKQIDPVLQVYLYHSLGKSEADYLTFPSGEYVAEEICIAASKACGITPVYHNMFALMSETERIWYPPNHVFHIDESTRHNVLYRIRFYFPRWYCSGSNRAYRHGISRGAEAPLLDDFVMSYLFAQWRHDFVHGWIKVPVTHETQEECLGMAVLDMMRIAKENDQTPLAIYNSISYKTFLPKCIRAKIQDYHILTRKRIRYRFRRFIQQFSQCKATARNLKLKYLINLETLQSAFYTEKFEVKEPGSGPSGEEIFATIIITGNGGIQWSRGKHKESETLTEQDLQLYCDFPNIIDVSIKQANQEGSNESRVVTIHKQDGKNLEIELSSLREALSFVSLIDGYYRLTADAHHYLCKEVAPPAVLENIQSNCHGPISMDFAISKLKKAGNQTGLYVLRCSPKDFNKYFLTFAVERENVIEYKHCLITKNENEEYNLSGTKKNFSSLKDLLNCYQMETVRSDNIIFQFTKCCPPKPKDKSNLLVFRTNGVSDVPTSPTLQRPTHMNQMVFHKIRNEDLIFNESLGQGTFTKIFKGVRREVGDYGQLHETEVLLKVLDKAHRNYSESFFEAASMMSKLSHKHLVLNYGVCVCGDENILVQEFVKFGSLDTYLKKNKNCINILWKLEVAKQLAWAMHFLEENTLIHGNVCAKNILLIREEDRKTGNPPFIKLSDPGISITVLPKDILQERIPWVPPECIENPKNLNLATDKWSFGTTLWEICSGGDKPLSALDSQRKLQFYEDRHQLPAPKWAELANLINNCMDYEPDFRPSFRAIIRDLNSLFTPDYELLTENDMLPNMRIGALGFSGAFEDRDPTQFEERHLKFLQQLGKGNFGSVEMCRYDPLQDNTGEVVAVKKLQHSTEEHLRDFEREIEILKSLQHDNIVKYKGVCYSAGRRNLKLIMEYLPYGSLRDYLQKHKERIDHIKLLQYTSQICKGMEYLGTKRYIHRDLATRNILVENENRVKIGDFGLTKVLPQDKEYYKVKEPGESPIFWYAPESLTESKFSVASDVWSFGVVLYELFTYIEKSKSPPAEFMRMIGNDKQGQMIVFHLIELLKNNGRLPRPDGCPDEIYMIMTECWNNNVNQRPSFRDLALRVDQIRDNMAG
T1 sequence (P23458 whole entry): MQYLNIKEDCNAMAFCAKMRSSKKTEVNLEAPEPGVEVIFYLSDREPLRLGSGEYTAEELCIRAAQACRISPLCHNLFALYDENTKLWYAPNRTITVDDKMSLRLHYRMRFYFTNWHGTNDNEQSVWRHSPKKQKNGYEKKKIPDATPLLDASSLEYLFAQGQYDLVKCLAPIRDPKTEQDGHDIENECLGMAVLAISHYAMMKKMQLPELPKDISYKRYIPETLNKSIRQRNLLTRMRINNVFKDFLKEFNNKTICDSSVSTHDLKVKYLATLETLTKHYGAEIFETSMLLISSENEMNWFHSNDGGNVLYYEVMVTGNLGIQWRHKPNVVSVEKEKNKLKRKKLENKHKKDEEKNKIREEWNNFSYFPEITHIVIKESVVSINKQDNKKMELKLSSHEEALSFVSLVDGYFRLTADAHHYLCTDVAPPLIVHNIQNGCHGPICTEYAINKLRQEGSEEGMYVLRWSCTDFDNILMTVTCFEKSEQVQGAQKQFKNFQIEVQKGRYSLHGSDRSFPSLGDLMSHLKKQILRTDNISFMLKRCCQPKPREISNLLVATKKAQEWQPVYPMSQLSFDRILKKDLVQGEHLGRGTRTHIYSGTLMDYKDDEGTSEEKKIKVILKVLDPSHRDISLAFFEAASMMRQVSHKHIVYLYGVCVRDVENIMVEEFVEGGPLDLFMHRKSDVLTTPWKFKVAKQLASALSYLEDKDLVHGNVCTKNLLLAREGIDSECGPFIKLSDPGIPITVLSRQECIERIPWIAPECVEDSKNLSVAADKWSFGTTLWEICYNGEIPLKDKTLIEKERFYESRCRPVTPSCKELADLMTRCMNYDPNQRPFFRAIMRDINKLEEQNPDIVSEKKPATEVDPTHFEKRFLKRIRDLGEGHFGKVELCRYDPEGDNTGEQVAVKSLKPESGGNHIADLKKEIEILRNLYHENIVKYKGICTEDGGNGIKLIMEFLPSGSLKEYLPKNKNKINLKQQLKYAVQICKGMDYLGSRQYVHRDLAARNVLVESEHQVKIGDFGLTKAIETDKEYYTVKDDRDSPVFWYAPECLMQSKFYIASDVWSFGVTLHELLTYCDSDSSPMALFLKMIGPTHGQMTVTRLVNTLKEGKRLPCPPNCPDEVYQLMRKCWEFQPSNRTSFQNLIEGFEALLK

`COC[C@H](C(=O)Nc1cccc2c(-c3nc(Nc4ccc(C(C)O)nc4)ncc3F)c[nH]c12)N1CCN(C)CC1` (single isomer, unassigned; isomer 1) [Example 29, 5-fluoro-2-((6-(1-hydroxyethyl)pyridin-3-yl)amino)pyrimidin-4-yl)-1H-indol-7-yl)-3-methoxy-2-(4-methylpiperazin-1-yl)propanamide (isomer 1)]: the IC50 was 0.31 nM on JAK1; 74 nM on JAK2; 9.8 nM with phosphorylation of STAT6 (THP-1 cells); 939 nM on TYK2; > 10000 nM on JAK3.
As to `COC[C@H](C(=O)Nc1cccc2c(-c3nc(Nc4ccc(C(C)O)nc4)ncc3F)c[nH]c12)N1CCN(C)CC1` (single isomer, unassigned; isomer 2) [Example 9], the IC50 came to 0.25 nM on JAK1; 20 nM on JAK2; 6.5 nM in the experiment with phosphorylation of STAT6 (setting [1]); 330 nM on TYK2; 9950 nM at JAK3.
As for `COC[C@H](C(=O)Nc1cccc2c(-c3nc(Nc4cnc(CO)c(C)c4)ncc3F)c[nH]c12)N1CCN(C)CC1` [Example 3, (R)-N-(3-(5-fluoro-2-((6-(hydroxymethyl)-5-methylpyridin-3-yl)amino)pyrimidin-4-yl)-1H-indol-7-yl)-3-methoxy-2-(4-methylpiperazin-1-yl)propanamide], the IC50 on JAK1 is 0.19 nM; on JAK2, 4 nM; in the experiment on phosphorylation of STAT6 (setting [1]) it was 4.5 nM; on TYK2, 156 nM; at JAK3, 7700 nM.
As for `COC[C@H](C(=O)Nc1cccc2c(-c3nc(Nc4cnn(-c5ccccc5C(=O)OC)c4)ncc3F)c[nH]c12)N1CCN(C)CC1` [Example 6, methyl (R)-2-(4-((5-fluoro-4-(7-(3-methoxy-2-(4-methylpiperazin-1-yl)propanamido)-1H-indol-3-yl)pyrimidin-2-yl)amino)-1H-pyrazol-1-yl)benzoate], the IC50 is 0.42 nM at JAK1; 452 nM on JAK2; 6 nM with phosphorylation of STAT6 (setting [1]); 4660 nM on TYK2; > 10000 nM on JAK3.
The matching figures for `COC[C@H](C(=O)Nc1cccc2c(-c3nc(Nc4cnc(C)c(C(=O)OC)c4)ncc3F)c[nH]c12)N1CCN(C)CC1` [Example 7, methyl (R)-5-((5-fluoro-4-(7-(3-methoxy-2-(4-methylpiperazin-1-yl)propanamido)-1H-indol-3-yl)pyrimidin-2-yl)amino)-2-methylnicotinate]: 0.21 nM, 58 nM, 6.2 nM, 634 nM and > 10000 nM.
In the case of `COC[C@H](C(=O)Nc1cccc2c(-c3nc(Nc4ccc(OCC(=O)OC)nc4)ncc3F)c[nH]c12)N1CCN(C)CC1` [Example 14, methyl (R)-2-((5-((5-fluoro-4-(7-(3-methoxy-2-(4-methylpiperazin-1-yl)propanamido)-1H-indol-3-yl)pyrimidin-2-yl)amino)pyridin-2-yl)oxy)acetate], the IC50 on JAK1 was 0.2 nM; at JAK2 it was 336 nM; in the experiment on phosphorylation of STAT6 (setting [1]) it was 7.3 nM; at TYK2, 4200 nM; at JAK3, > 10000 nM.
As for `COC[C@H](C(=O)Nc1cccc2c(-c3nc(Nc4cnn(C5CCOCC5)c4)ncc3F)c[nH]c12)N1CCN(C)CC1` [Example 18, (R)-N-(3-(5-fluoro-2-((1-(tetrahydro-2H-pyran-4-yl)-1H-pyrazol-4-yl)amino)pyrimidin-4-yl)-1H-indol-7-yl)-3-methoxy-2-(4-methylpiperazin-1-yl)propanamide], the IC50 was determined as 0.14 nM on JAK1; 22 nM at JAK2; 7.6 nM with phosphorylation of STAT6 (setting [1]); 1090 nM on TYK2; 7730 nM at JAK3.
As for `COC[C@H](C(=O)Nc1cccc2c(-c3nc(Nc4cnc5cn[nH]c5c4)ncc3F)c[nH]c12)N1CCN(C)CC1` [Example 19, (R)-N-(3-(2-((1H-pyrazolo[4,3-b]pyridin-6-yl)amino)-5-fluoropyrimidin-4-yl)-1H-indol-7-yl)-3-methoxy-2-(4-methylpiperazin-1-yl)propanamide], the half-maximal inhibitory concentration (IC50) at JAK1 is 0.27 nM; on JAK2 it was 215 nM; with phosphorylation of STAT6 (setting [1]) it was 7.7 nM; on JAK3, > 10000 nM.
As for `CNCCOc1ccc(Nc2ncc(F)c(-c3c[nH]c4c(NC(=O)[C@@H](COC)N5CCN(C)CC5)cccc34)n2)cn1` [Example 20, (R)-N-(3-(5-fluoro-2-((6-(2-(methylamino)ethoxy)pyridin-3-yl)amino)pyrimidin-4-yl)-1H-indol-7-yl)-3-methoxy-2-(4-methylpiperazin-1-yl)propanamide], the IC50 on JAK1 was 0.65 nM; at JAK2, 135 nM; in the experiment with phosphorylation of STAT6 (setting [1]), 7.9 nM; at TYK2, 2400 nM; on JAK3 it was > 10000 nM.
In the same order, the values of `COC[C@H](C(=O)Nc1cccc2c(-c3nc(Nc4cncc(C(=O)OC)c4)ncc3F)c[nH]c12)N1CCN(C)CC1` [Example 21, methyl (R)-5-((5-fluoro-4-(7-(3-methoxy-2-(4-methylpiperazin-1-yl)propanamido)-1H-indol-3-yl)pyrimidin-2-yl)amino)nicotinate] are 0.2 nM, 125 nM, 8.4 nM, 1150 nM and > 10000 nM.
For the compound `COC[C@H](C(=O)Nc1cccc2c(-c3nc(Nc4ccc(-c5ncco5)nc4)ncc3F)c[nH]c12)N1CCN(C)CC1` [Example 22, (R)-N-(3-(5-fluoro-2-((6-(oxazol-2-yl)pyridin-3-yl)amino)pyrimidin-4-yl)-1H-indol-7-yl)-3-methoxy-2-(4-methylpiperazin-1-yl)propanamide], the IC50 at JAK1 is 0.24 nM; on JAK2 it was 467 nM; in the experiment with phosphorylation of STAT6 (setting [1]), 8.5 nM; at TYK2, 5250 nM; on JAK3, > 10000 nM.
The matching figures for `COC[C@H](C(=O)Nc1cccc2c(-c3nc(Nc4ccc(-n5ccnc5)nc4)ncc3F)c[nH]c12)N1CCN(C)CC1` [Example 24, (R)-N-(3-(2-((6-(1H-imidazol-1-yl)pyridin-3-yl)amino)-5-fluoropyrimidin-4-yl)-1H-indol-7-yl)-3-methoxy-2-(4-methylpiperazin-1-yl)propanamide]: 0.82 nM, 403 nM, 8.9 nM, 2570 nM and > 10000 nM.
In the same order, the values of `COC[C@H](C(=O)Nc1cccc2c(-c3nc(Nc4cncc(CCCO)c4)ncc3F)c[nH]c12)N1CCN(C)CC1` [Example 25, (R)-N-(3-(5-fluoro-2-((5-(3-hydroxypropyl)pyridin-3-yl)amino)pyrimidin-4-yl)-1H-indol-7-yl)-3-methoxy-2-(4-methylpiperazin-1-yl)propanamide] are 0.2 nM, 9 nM, 8.9 nM, 273 nM and > 10000 nM.
